Source: US4472387A, “Pharmaceutical compositions capable of increasing cerebral serotonin concentration” (Panmedica S.A., priority 1981, dated 1984)
Where a name gives a salt, the structure may show the parent alone.

Legend:
[1] = system: cerebral metabolism of serotonin; assay: Percent increase in cerebral endogenic level of 5-HTP, 5-HT and 5-HIAA in the rat after intragastric administration; assay type: in vivo; details: 1 hour
Description: This study, carried out in the rat, determined the efficacy of the compositions according to the present invention on the cerebral metabolism of serotonin and established the potentiation of the serotoninogenic effect with respect to the reference (L)-5-HTP. (Purine, pyrimidine, and pyridine bases are, of themselves, entirely devoid of this activity.)
The animals were male adult rats of the OFA stain weighing 160 to 180 g. They were subjected to an alternating light cycle of 12 hours of light and 12 hours of darkness.
The various derivatives according to the invention were administered in distilled water intragastically at doses of 10, 25, and 50 mg/kg. After one hour, the rats were decapitated; and the contents of 5-hydroxytryptamine (5-HT), of 5-HIAA, and of 5-hydroxytryptophane in the brains were determined by the methods published by G. Curzon and Cool, [Brit. J. Pharmaco., 39, 653 (1970)].
They represent the percentage increase of cerebral endogenic levels at 10, 25, 50 mg/kg of the pure (L)-5-HTP (control) and of compositions according to the present invention for a given batch of control rats.

[2] = prolonged administration of high doses; cited from earlier work
[3] = system: cerebral serotonin; details: 5-HTP alone; cited from earlier work
[4] = system: mice; assay: Toxicity, LD50 per os/mice; assay type: in vivo
Description: (§1) The toxicities of the salts and the complexes of 5-HTP according to the present invention are very low as witnessed by the LD50 's per os/mice assembled in Table 2 below: […]

[5] = Aqueous solubility
[6] = system: receptors of benzodiazepines; details: P. Skolnick, 1979; cited from earlier work
[7] = system: blood levels of 5-HTP and 5-hydroxyindolacetic acid (5-HIAA); assay: Clinical results: blood levels of 5-HTP and 5-HIAA; assay type: in vivo; details: for blood levels of 5-HTP / blood levels of 5-hydroxyindolacetic acid (5-HIAA): clinical results; for blood levels of 5-hydroxyindolacetic acid (5-HIAA): principal metabolite of serotonin
Description: In interpreting the clinical results of these remarkable medicaments, the applicants have observed that a complex of inosine with 5-HTP, particularly a complex of inosine with (L)-5-HTP, triples the blood levels of 5-HTP and 5-hydroxyindolacetic acid (5-HIAA), the principal metabolite of serotonin.

[8] = Toxicity, LD50 per os/mice; assay type: in vivo; details: mouse, in vivo, po, mice
Description: as §1

Molecule | Percent increase in cerebral endogenic level of 5-HIAA ([1]; 10 mg/kg) [%] | Percent increase in cerebral endogenic level of 5-HT ([1]; 10 mg/kg) [%] | Percent increase in cerebral endogenic level of 5-Ht + 5-HIAA ([1]; 10 mg/kg) [%] | Percent increase in cerebral endogenic level of (L)-5-HTP ([1]; 10 mg/kg) [%] | Percent increase in cerebral endogenic level of 5-HIAA ([1]; 25 mg/kg) [%] | Percent increase in cerebral endogenic level of 5-HT ([1]; 25 mg/kg) [%] | Percent increase in cerebral endogenic level of 5-Ht + 5-HIAA ([1]; 25 mg/kg) [%] | Percent increase in cerebral endogenic level of (L)-5-HTP ([1]; 25 mg/kg) [%] | Percent increase in cerebral endogenic level of 5-HIAA ([1]; 50 mg/kg) [%] | Percent increase in cerebral endogenic level of 5-HT ([1]; 50 mg/kg) [%] | Percent increase in cerebral endogenic level of 5-Ht + 5-HIAA ([1]; 50 mg/kg) [%] | Percent increase in cerebral endogenic level of (L)-5-HTP ([1]; 50 mg/kg) [%] | also measured
N[C@@H](Cc1c[nH]c2ccc(O)cc12)C(=O)O [(L)-5-HTP pure, (L)-5-hydroxytryptophane, reference compound] | 40 | 10 | 55 | 120 | 110 | 25 | 110 | 260 | 300 | 35 | 180 | 650 | 
N[C@@H](Cc1c[nH]c2ccc(O)cc12)C(=O)O [Example 5-HTP, 5-hydroxytryptophane] |  |  |  |  |  |  |  |  |  |  |  |  | renal lesions [2]: often results in renal lesions; decarboxylation at the peripheral level [3]: considerable decarboxylation; hepatic catabolism [3]: high hepatic catabolism; overall yield of cerebral serotonin synthesized with respect to the amount of 5-hydroxytryptophane administered [3]: very low; passage of the gastrointestinal and hematoencephalic barriers [3]: mediocre passage
EQU[…] OF (L)-5-HYDROXYT[…] OF ALLOPURINOL [Example 5] | 90 | 15 | 60 | 108 | 100 | 70 | 85 | 830 | 765 | 115 | 475 | 2100 | LD50 per os [4]: 1000 mg/kg
N[C@@H](Cc1c[nH]c2ccc(O)cc12)C(=O)O [Example 12, CAFFEINE SALT OF (L)-5-HYDROXYTRYPTOPHANE] |  |  |  |  |  |  |  |  |  |  |  |  | LD50 per os [4]: > 2000 mg/kg
EQU[…] OF […] (DL)-5-HYDROXYTRYPTOPHANE [Example 6] | 20 |  | 8 | 115 | 90 | 30 | 65 | 230 | 360 | 60 | 210 | 1575 | solubility in water ([5]; in words): very soluble in water
NC(Cc1c[nH]c2ccc(O)cc12)C(=O)O.O.O=c1[nH]cnc2c1ncn2[C@@H]1O[C@H](CO)[C@@H](O)[C@H]1O (racemic) [Example 2, (DL) 5-HYDROXYTRYPTOPHANE INOSINATE] | 135 | 2 | 85 | 110 | 345 | 80 | 220 | 1665 | 1190 | 110 | 700 | 1955 | 
O=c1[nH]cnc2nc[nH]c12 [hypoxanthine, 1,7-dihydropurine-6-one] |  |  |  |  |  |  |  |  |  |  |  |  | endogenous ligands of receptors of benzodiazepines [6]: can constitute endogenous ligands of receptors of benzodiazepines
N[C@@H](Cc1c[nH]c2ccc(O)cc12)C(=O)O [Example 4, THEOPHYLLINE SALT OF (L)-5-HYDROXYTRYPTOPHANE] | 85 |  | 75 | 55 | 270 | 25 | 150 | 1200 | 870 | 35 | 490 | 1710 | LD50 per os [4]: 1000 mg/kg; solubility ([5]; water): 3500 µg/mL
NC(Cc1c[nH]c2ccc(O)cc12)C(=O)O.O=c1[nH]cnc2c1ncn2C1OC(CO)C(O)C1O (stereo not shown) [complex of inosine with 5-HTP] |  |  |  |  |  |  |  |  |  |  |  |  | blood levels of 5-HTP [7]: triples; blood levels of 5-hydroxyindolacetic acid (5-HIAA) [7]: triples
O=c1[nH]cnc2c1ncn2[C@@H]1O[C@H](CO)[C@@H](O)[C@H]1O [inosine, 9-β-D-ribofuranosylhypoxanthine] |  |  |  |  |  |  |  |  |  |  |  |  | endogenous ligands of receptors of benzodiazepines [6]: can constitute endogenous ligands of receptors of benzodiazepines
N[C@@H](Cc1c[nH]c2ccc(O)cc12)C(=O)O [Example 10, NI[…] OF (L)-5-HYDROXYTRYPTOPHANE] |  |  |  |  |  |  |  |  |  |  |  |  | LD50 [8]: > 2000 mg/kg
Cc1ncc(CO)c(CO)c1O.Cl.N[C@@H](Cc1c[nH]c2ccc(O)cc12)C(=O)O [Example 7, EQUIMOLECULAR COMPLEX OF PYRIDOXINE WITH (L)-5-HYDROXYTRYPTOPHANE] | 35 | 20 | 40 | 190 | 230 | 80 | 165 | 420 | 755 | 25 | 390 | 2500 | 
N[C@H](Cc1c[nH]c2ccc(O)cc12)C(=O)O [(D)-5-HTP, reference compound] |  |  |  |  |  |  |  |  |  |  |  |  | activity ([7]; pharmacological response): almost entire absence of activity
N[C@@H](Cc1c[nH]c2ccc(O)cc12)C(=O)O.O.O=c1[nH]cnc2c1ncn2[C@@H]1O[C@H](CO)[C@@H](O)[C@H]1O [Example 1, (L)-5-HTP INOSINATE] | 165 | 2 | 100 | 135 | 290 | 100 | 195 | 1755 | 1010 | 70 | 545 | 2665 | blood levels of 5-HTP [7]: triples; blood levels of 5-hydroxyindolacetic acid (5-HIAA) [7]: triples
